Test results reported in patent publication US6376521B1, “A3 adenosine receptor antagonists” (The United States of America as represented by the …, priority 1998, dated 2002).
Where two headings read alike, the source gives them in different places. Each block holds one compound with its values, some of them ahead of it.

Legend:
A1 adenosine receptors = biological target: T1, A1 adenosine receptors (Rattus norvegicus, UniProt P25099); experiment: Displacement of specific [3H]R-PIA binding in rat brain membranes; details: for inhibition at 100 µM: read-out: rA1 % inhibition (percentage of specific binding displaced); for Ki: [3H]R-PIA, rat brain membranes, n = 3-5, read-out: rA1 Ki ± S.E.M.
T1 construct: from tissue
T1 sequence (P25099 1-326): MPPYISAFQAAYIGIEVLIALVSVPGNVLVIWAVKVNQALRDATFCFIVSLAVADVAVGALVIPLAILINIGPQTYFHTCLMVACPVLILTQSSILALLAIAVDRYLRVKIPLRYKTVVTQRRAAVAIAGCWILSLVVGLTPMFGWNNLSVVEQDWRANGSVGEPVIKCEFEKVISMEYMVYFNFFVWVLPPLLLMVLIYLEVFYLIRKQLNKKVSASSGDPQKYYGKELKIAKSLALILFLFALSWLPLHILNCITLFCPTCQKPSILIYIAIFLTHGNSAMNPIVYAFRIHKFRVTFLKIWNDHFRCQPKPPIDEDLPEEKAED

A2A adenosine receptors = biological target: T2, A2A adenosine receptors (Rattus norvegicus, UniProt P30543); experiment: Displacement of specific [3H]CGS 21680 binding in rat striatal membranes; details: for Ki: [3H]CGS 21680, rat striatal membranes, n = 3-6, read-out: rA2A Ki ± S.E.M.
T2 construct: from tissue
T2 sequence (P30543 whole entry): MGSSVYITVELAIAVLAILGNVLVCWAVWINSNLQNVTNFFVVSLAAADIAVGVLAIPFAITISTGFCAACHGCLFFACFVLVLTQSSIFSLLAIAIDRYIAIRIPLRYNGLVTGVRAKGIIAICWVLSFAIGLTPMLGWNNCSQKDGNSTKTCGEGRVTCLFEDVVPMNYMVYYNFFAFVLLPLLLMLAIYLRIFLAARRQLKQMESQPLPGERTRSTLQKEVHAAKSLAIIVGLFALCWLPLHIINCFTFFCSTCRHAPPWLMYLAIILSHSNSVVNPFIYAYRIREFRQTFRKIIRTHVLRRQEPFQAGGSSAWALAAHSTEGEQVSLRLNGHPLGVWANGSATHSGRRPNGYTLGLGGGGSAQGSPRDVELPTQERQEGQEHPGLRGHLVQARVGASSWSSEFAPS

human A3 receptors = biological target: T3, human A3 receptors (Homo sapiens, UniProt P0DMS8); experiment: Displacement of specific [125I]AB-MECA binding at human A3 receptors expressed in HEK cells, in membranes; details: for Ki: [125I]AB-MECA, HEK cell membranes, n = 3-4, read-out: hA3 Ki ± S.E.M.; for rA1/hA3: ratio of affinities rat A1 vs human A3
T3 construct: expressed in transfected cells
T3 sequence (P0DMS8 1-318): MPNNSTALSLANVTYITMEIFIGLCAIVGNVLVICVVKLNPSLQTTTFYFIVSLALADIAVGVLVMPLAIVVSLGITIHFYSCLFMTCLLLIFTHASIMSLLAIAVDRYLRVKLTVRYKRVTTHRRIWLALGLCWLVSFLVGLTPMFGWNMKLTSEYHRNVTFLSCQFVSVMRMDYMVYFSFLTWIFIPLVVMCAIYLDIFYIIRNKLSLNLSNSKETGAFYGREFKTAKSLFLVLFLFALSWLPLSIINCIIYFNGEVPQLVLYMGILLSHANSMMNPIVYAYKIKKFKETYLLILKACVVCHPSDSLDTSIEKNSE

rat A3 receptors = biological target: T4, rat A3 receptors (Rattus norvegicus, UniProt P28647); experiment: Displacement of specific [125I]AB-MECA binding at rat A3 receptors stably expressed in CHO cells; details: for rA3/hA3: ratio of affinities at rat vs. human A3 receptors; for rA1/rA3: ratio of affinities rat A1 vs rat A3
T4 construct: expressed in transfected cells
T4 sequence (P28647 1-320): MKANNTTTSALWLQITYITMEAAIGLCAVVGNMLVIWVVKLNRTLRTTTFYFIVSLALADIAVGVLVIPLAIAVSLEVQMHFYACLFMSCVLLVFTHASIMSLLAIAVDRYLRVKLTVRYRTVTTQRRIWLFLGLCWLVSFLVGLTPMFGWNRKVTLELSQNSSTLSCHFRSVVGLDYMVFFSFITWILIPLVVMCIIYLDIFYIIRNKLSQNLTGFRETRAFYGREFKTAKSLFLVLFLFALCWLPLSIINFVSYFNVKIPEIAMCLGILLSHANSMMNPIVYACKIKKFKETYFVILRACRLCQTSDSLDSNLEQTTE

[1] = Table 4, [125I]AB-MECA, CHO cells, n = 3-5, read-out: rA3 Ki

SMILES: CCOC(=O)c1c(-c2ccccc2)nc(CC)c(C(=O)SCC)c1CC [Compound 48, 5-Ethyl 2,4-diethyl-3-(ethylsulfanylcarbonyl)-6-phenylpyridine-5-carboxylate]
- rA1 percentage of specific binding displaced (A1 adenosine receptors; Table 2, at 10^−4 M): 41 ± 6% (10^−4)
- Ki (A2A adenosine receptors; Table 2, compounds 33-58): 6.13 ± 1.28 µM
- Ki (human A3 receptors; Table 2, compounds 33-58): 0.02 ± 0.0019 µM
- rA1/hA3 (human A3 receptors; Table 2): >3000
- Ki (rat A3 receptors; [1]): 0.41 ± 0.048 µM
- rA3/hA3 (rat A3 receptors; Table 4): 21
- rA1/rA3 (rat A3 receptors; Table 4): >100

SMILES: CCOC(=O)c1c(-c2cccc(Cl)c2)nc(CC)c(C(=O)SCC)c1CC [Compound 51, 5-Ethyl 2,4-diethyl-3-(ethylsulfanylcarbonyl)-6-(m-chlorophenyl)pyridine-5-carboxylate]
- Ki (A1 adenosine receptors; Table 2, compounds 33-58): 8.2 ± 2.96 µM
- Ki (A2A adenosine receptors; Table 2, compounds 33-58): 8.91 ± 0.97 µM
- Ki (human A3 receptors; Table 2, compounds 33-58): 0.0134 ± 0.0015 µM
- rA1/hA3 (human A3 receptors; Table 2): 610
- Ki (rat A3 receptors; [1]): 0.44 ± 0.033 µM
- rA3/hA3 (rat A3 receptors; Table 4): 33
- rA1/rA3 (rat A3 receptors; Table 4): 19

SMILES: CCOC(=O)c1c(C)nc(-c2ccccc2)c(C(=O)OCC)c1CC [Compound 35, 3,5-Diethyl 2-methyl-4-ethyl-6-phenylpyridine-3,5-dicarboxylate]
- Ki (A1 adenosine receptors; Table 2, compounds 33-58): 3.36 ± 0.6 µM
- Ki (A2A adenosine receptors; Table 2, compounds 33-58): 3.69 ± 1.25 µM
- Ki (human A3 receptors; Table 2, compounds 33-58): 0.176 ± 0.038 µM
- rA1/hA3 (human A3 receptors; Table 2): 19

SMILES: CCOC(=O)c1c(-c2ccccc2)nc(C2CCC2)c(C(=O)SCC)c1CC [Compound 58, 5-Ethyl 2-cyclobutyl-4-ethyl-3-(ethylsulfanylcarbonyl)-6-phenylpyridine-5-carboxylate]
- rA1 percentage of specific binding displaced (A1 adenosine receptors; Table 2, at 10^−4 M): 30% (10^−4)
- rA2A percentage of specific binding displaced (A2A adenosine receptors; Table 2, at 10^−4 M): 22% (10^−4)
- Ki (human A3 receptors; Table 2, compounds 33-58): 0.145 ± 0.044 µM
- rA1/hA3 (human A3 receptors; Table 2): >500

SMILES: CCCOC(=O)c1c(C)nc(-c2ccccc2)c(C(=O)OCC)c1C [Compound 34, 3-Propyl 5-ethyl 2,4-dimethyl-6-phenylpyridine-3,5-dicarboxylate]
- Ki (A1 adenosine receptors; Table 2, compounds 33-58): 5.05 ± 0.54 µM
- Ki (A2A adenosine receptors; Table 2, compounds 33-58): 24.5 ± 8.5 µM
- Ki (human A3 receptors; Table 2, compounds 33-58): 0.215 ± 0.022 µM
- rA1/hA3 (human A3 receptors; Table 2): 23

SMILES: CCOC(=O)c1c(CC)nc(-c2ccccc2)c(C(=O)OCC)c1C [Compound 46, 3,5-Diethyl 2-ethyl-4-methyl-6-phenylpyridine-3,5-dicarboxylate]
- Ki (A1 adenosine receptors; Table 2, compounds 33-58): 10.3 ± 1.7 µM
- Ki (A2A adenosine receptors; Table 2, compounds 33-58): 13.4 ± 4.2 µM
- Ki (human A3 receptors; Table 2, compounds 33-58): 0.121 ± 0.008 µM
- rA1/hA3 (human A3 receptors; Table 2): 85

SMILES: CCCOC(=O)c1c(-c2cccc(Cl)c2)nc(CC)c(C(=O)SCCC)c1CC [Compound 54, 5-Propyl 2,4-diethyl-3-propylsulfanylcarbonyl-6-(m-chlorophenyl)pyridine-5-carboxylate]
- Ki (A1 adenosine receptors; Table 2, compounds 33-58): 41.4 ± 11.9 µM
- Ki (A2A adenosine receptors; Table 2, compounds 33-58): 24.1 ± 7.9 µM
- Ki (rat A3 receptors): 0.814 ± 0.037 µM

SMILES: CCOC(=O)c1c(C)nc(C2CCCC2)c(C(=O)OCc2ccccc2)c1C#Cc1ccccc1 [Compound 45, 3-Ethyl 5-benzyl 2-methyl-4-phenylethynyl-6-cyclopentylpyridine-3,5-dicarboxylate]
- Ki (A1 adenosine receptors; Table 2, compounds 33-58): 56.2 ± 20.8 µM
- Ki (A2A adenosine receptors; Table 2, compounds 33-58): 22.9 ± 5 µM
- Ki (human A3 receptors; Table 2, compounds 33-58): 3.85 ± 0.79 µM
- rA1/hA3 (human A3 receptors; Table 2): 15

SMILES: CCCOC(=O)c1c(-c2ccccc2)nc(CC)c(C(=O)SCCOC2CCCCO2)c1CCC (stereo not shown) [Compound 13]
- rA1 percentage of specific binding displaced (A1 adenosine receptors; Table 2, at 10^−4 M): 18 ± 1% (10^−4)
- rA2A displacement of specific binding (class d) (A2A adenosine receptors; Table 2, at 10^−4 M): d (10^−4) (Displacement of <10% of specific binding at the indicated concentration (M).)
- rA1/hA3 (human A3 receptors; Table 2): >20

SMILES: CCOC(=O)c1c(-c2ccccc2)nc(CCOC)c(C(=O)SCC)c1CC [Compound 56, 5-Ethyl 2-(2-methoxylethyl)-4-ethyl-3-(ethylsulfanylcarbonyl)-6-phenylpyridine-5-carboxylate]
- Ki (A1 adenosine receptors; Table 2, compounds 33-58): 10.1 ± 2.1 µM
- Ki (A2A adenosine receptors; Table 2, compounds 33-58): 12.6 ± 1.7 µM
- Ki (human A3 receptors; Table 2, compounds 33-58): 0.0168 ± 0.002 µM
- rA1/hA3 (human A3 receptors; Table 2): 600

Continued, in another order:

- inhibition at 100 µM (A1 adenosine receptors; Table 3, at 10^−4 M): 45 ± 2%
- Ki (A2A adenosine receptors; Table 3): 14.3 ± 4.2 µM
- Ki (human A3 receptors; Table 3): 1.65 ± 0.4 µM
- rA1/hA3 (human A3 receptors; Table 3): >50
- Ki (rat A3 receptors; [1]): 2.8 ± 0.28 µM
- rA3/hA3 (rat A3 receptors; Table 4): 1.7
- rA1/rA3 (rat A3 receptors; Table 4): >20
SMILES: CCSC(=O)C1=C(C)NC(c2ccccc2)=C(C(=O)OCc2ccccc2)C1CC (racemic) [Compound 65, 5-Benzyl 2-methyl-4ethyl-6-phenyl-3-(ethylsulfanylcarbonyl)-1,4-(±)-dihydropyridine-5-carboxylate]

- rA1 percentage of specific binding displaced (A1 adenosine receptors; Table 2, at 10^−4 M): 20 ± 8% (10^−4)
- Ki (A2A adenosine receptors; Table 2, compounds 33-58): 12.8 ± 2.9 µM
- Ki (human A3 receptors; Table 2, compounds 33-58): 2.61 ± 0.96 µM
- rA1/hA3 (human A3 receptors; Table 2): >40
- Ki (rat A3 receptors; [1]): 1.8 ± 0.32 µM
- rA3/hA3 (rat A3 receptors; Table 4): 0.69
- rA1/rA3 (rat A3 receptors; Table 4): >50
SMILES: CCSC(=O)c1c(C)nc(-c2ccccc2)c(C(=O)OCc2ccccc2)c1CC [Compound 39, 5-Benzyl 2-methyl-4-ethyl-3-(ethylsulfanylcarbonyl)-6-phenylpyridine-5-carboxylate]

- inhibition at 100 µM (A1 adenosine receptors; Table 3, at 10^−4 M): 26 ± 19%
- Ki (human A3 receptors; Table 3): 2.09 ± 0.04 µM
- rA1/hA3 (human A3 receptors; Table 3): >20
- Ki (rat A3 receptors; [1]): 2.73 ± 0.14 µM
- rA3/hA3 (rat A3 receptors; Table 4): 1.3
- rA1/rA3 (rat A3 receptors; Table 4): >30
SMILES: CCCC1=C(C(=O)SCC)C(CC)C(C(=O)OCC)=C(c2ccccc2)N1 (racemic) [Compound 76, 5-Ethyl 2-propyl-4-ethyl-6-phenyl-3-(ethylsulfanylcarbonyl)-1,4-(±)-dihydropyridine-5-carboxylate]
- rA2A displacement of specific binding (class d) (A2A adenosine receptors; Table 3, at 10^−4 M): d (10^−4) (Displacement of < 10% of specific binding at the indicated concentration (M).)

- rA1 % inhibition (percentage of specific binding displaced) (A1 adenosine receptors; Table 3, at 10^−4 M): 36 ± 14%
- Ki (A2A adenosine receptors; Table 3): 12.5 ± 2.5 µM
- Ki (human A3 receptors; Table 3): 4.58 ± 0.35 µM
- rA1/hA3 (human A3 receptors; Table 3): >10
SMILES: CCOC(=O)C1=C(c2ccccc2)NC(C)=C(C(=O)SCCOC)C1CC (racemic) [Compound 63, 5-Ethyl 2-methyl-4-ethyl-6-phenyl-3-[(2-methoxy-(ethylsulfanylcarbonyl)]-1,4-(±)-dihydropyridine-5-carboxylate]

- Ki (A2A adenosine receptors; Table 2, compounds 33-58): 27.6 ± 12 µM
- Ki (human A3 receptors; Table 2, compounds 33-58): 2.41 ± 0.59 µM
SMILES: CCOC(=O)c1c(C)nc(C2CCC2)c(C(=O)OCc2ccccc2)c1C#Cc1ccccc1 [Compound 44, 3-Ethyl 5-benzyl 2-methyl-4-phenylethynyl-6-cyclobutylpyridine-3,5-dicarboxylate]
- rA1 displacement of specific binding (class d) (A1 adenosine receptors; Table 2, at 10^−4 M): d (10^−4) (Displacement of <10% of specific binding at the indicated concentration (M).)

- inhibition at 100 µM (A1 adenosine receptors; Table 3, at 10^−4 M): 48 ± 5%
- inhibition at 100 µM (A2A adenosine receptors; Table 3, at 10^−4 M, read-out: rA2A % inhibition (percentage of specific binding displaced)): 29 ± 10%
- Ki (rat A3 receptors; [1]): 3.1 ± 0.78 µM
SMILES: CCCC1C(C(=O)SCC)=C(C)NC(c2ccccc2)=C1C(=O)OCC (racemic) [Compound 64, 5-Ethyl 2-methyl-4-propyl-6-phenyl-3-(ethylsulfanylcarbonyl)-1,4-(±)-dihydropyridine-5-carboxylate]

- Ki (A1 adenosine receptors; Table 3): 35.4 ± 4.5 µM
- Ki (A2A adenosine receptors; Table 3): 54.8 ± 18.8 µM
- Ki (rat A3 receptors; [1]): 4.6 ± 0.38 µM
SMILES: CCOC(=O)C1=C(c2ccccc2)NC(C)=C(C(=O)SCC)C1CC (racemic) [Compound 62, 5-Ethel 2-methyl-4ethyl-6-phenyl-3-(ethylsulfanylcarbonyl)-1,4-(±)-dihydropyridine-5-carboxylate]

- Ki (A1 adenosine receptors; Table 3): 17.1 ± 4.3 µM
- Ki (A2A adenosine receptors; Table 3): 7.16 ± 1.56 µM
- Ki (human A3 receptors; Table 3): 0.0505 µM
- rA1/hA3 (human A3 receptors; Table 3): 340
SMILES: CCOC(=O)C1=C(C)NC(C2CCCC2)=C(C(=O)OCc2ccccc2)C1C#Cc1ccccc1 (racemic) [Compound 72, 3-Ethyl 5-benzyl 2-methyl-4-phenylethynyl-6-cyclopentyl-1,4(±)-dihydropyridine-3,5-dicarboxylate]
